Laboratory results from ChEMBL document CHEMBL6078677, “Discovery and optimization of tetrahydroacridine derivatives as a novel class of antibiotics against multidrug-resistant Gram-positive pathogens by targeting type I signal peptidase and disrupting bacterial membrane” (Eur J Med Chem, 2025).
≈ marks a conversion by molar mass, not a printed value.

Columns and labels:
Type in all cases: functional
Enterococcus faecium = test: Antimicrobial activity against Enterococcus faecium QF31 harboring erythromycin resistance rRNA methylase B and chloramphenicol-florfenicol resistance methylase assessed as inhibition of visible growth of bacteria incubated for 20 hrs by broth microdilution method
Streptococcus suis = test: Antimicrobial activity against Streptococcus suis P1/7 assessed as inhibition of visible growth of bacteria incubated for 20 hrs by broth microdilution method
Enterococcus faecalis = test: microbe, parasite or virus in culture; details: SF23-1, time 20 hrs
Description: Antimicrobial activity against Enterococcus faecalis SF23-1 harboring erythromycin-resistance rRNA methylase B, tetracycline efflux protein L and chloramphenicol-florfenicol resistance methylase assessed as inhibition of visible growth of bacteria incubated for 20 hrs by broth microdilution method

Staphylococcus aureus = test: Antimicrobial activity against Staphylococcus aureus ATCC 29213 assessed as inhibition of visible growth of bacteria incubated for 20 hrs by broth microdilution method

Compound	MIC (Enterococcus faecium) [µg/mL]	MIC (Streptococcus suis) [µg/mL]	MIC (Enterococcus faecalis) [µg/mL]	MIC (Staphylococcus aureus) [µg/mL]
CC1(C)C/C(=C\c2ccc(-c3ccc(Cl)c(C(F)(F)F)c3)o2)c2nc3ccccc3c(C(=O)O)c2C1	8 (≈ 15.6 µM)	32 (≈ 62.5 µM)	4 (≈ 7.81 µM)	32 (≈ 62.5 µM)
FC(F)(F)c1cc(-c2ccc(/C=C3\CCCc4c3nc3ccccc3c4Cl)o2)ccc1Cl	64 (≈ 135 µM)	> 64	> 64	> 64
O=C(O)C1=c2ccccc2=NC2/C(=C/c3cccc(-c4ccc(Cl)c(C(F)(F)F)c4)c3)CCC12 (stereo unspecified)	> 64	> 64	> 64	> 64
O=C(O)c1c2c(nc3ccccc13)/C(=C/c1ccc(-c3ccc(Cl)cc3)o1)CCC2	16 (≈ 38.5 µM)	32 (≈ 76.9 µM)	> 64	16 (≈ 38.5 µM)
CC1(C)C/C(=C\c2ccc(-c3cccc(Cl)c3Cl)o2)c2nc3ccccc3c(C(=O)O)c2C1	8 (≈ 16.7 µM)	> 64	8 (≈ 16.7 µM)	16 (≈ 33.4 µM)
O=C(O)c1c2c(nc3ccccc13)/C(=C/c1ccc(-c3cccc(Cl)c3)o1)CCC2	16 (≈ 38.5 µM)	16 (≈ 38.5 µM)	> 64	16 (≈ 38.5 µM)
CC1C/C(=C\c2ccc(-c3ccc(Cl)cc3)o2)c2nc3ccccc3c(C(=O)O)c2C1 (racemic)	16 (≈ 37.2 µM)	32 (≈ 74.4 µM)	> 64	8 (≈ 18.6 µM)
COc1ccc(-c2ccc(/C=C3\CC(C)Cc4c3nc3ccccc3c4C(=O)O)o2)cc1 (racemic)	16 (≈ 37.6 µM)	32 (≈ 75.2 µM)	> 64	> 64
CC1C/C(=C\c2ccc(-c3ccc(Cl)c(C(F)(F)F)c3)o2)c2nc3ccccc3c(C(=O)O)c2C1 (racemic)	8 (≈ 16.1 µM)	32 (≈ 64.3 µM)	8 (≈ 16.1 µM)	2 (≈ 4.02 µM)
CC1C/C(=C\c2ccc(-c3cccc(Cl)c3Cl)o2)c2nc3ccccc3c(C(=O)O)c2C1 (racemic)	8 (≈ 17.2 µM)	64 (≈ 138 µM)	8 (≈ 17.2 µM)	2 (≈ 4.31 µM)
CC1C/C(=C\c2ccc(-c3cccc(Cl)c3Cl)cc2)c2nc3ccccc3c(C(=O)O)c2C1 (racemic)	8 (≈ 16.9 µM)	> 64	8 (≈ 16.9 µM)	2 (≈ 4.22 µM)
CC1C/C(=C\c2ccc(-c3ccc(Cl)c(C(F)(F)F)c3)o2)c2nc3ccccc3c(C(=O)N3CCN(C)CC3)c2C1 (racemic)	> 64	> 64	> 64	> 64
CC1C/C(=C\c2ccc(-c3ccc(Cl)c(C(F)(F)F)c3)nc2)c2nc3ccccc3c(C(=O)O)c2C1 (racemic)	8 (≈ 15.7 µM)	> 64	8 (≈ 15.7 µM)	4 (≈ 7.86 µM)
CC1C/C(=C\c2cccc(-c3ccc(Cl)c(C(F)(F)F)c3)c2)c2nc3cc(N4CCOCC4)ccc3c(C(=O)O)c2C1 (racemic)	4 (≈ 6.74 µM)	8 (≈ 13.5 µM)	32 (≈ 54 µM)	8 (≈ 13.5 µM)
CC1C/C(=C\c2cccc(-c3ccc(Cl)c(C(F)(F)F)c3)c2)c2nc3cc(N4CCN(C)CC4)ccc3c(C(=O)O)c2C1 (racemic)	8 (≈ 13.2 µM)	8 (≈ 13.2 µM)	8 (≈ 13.2 µM)	16 (≈ 26.4 µM)
CC1C/C(=C\c2cccc(-c3ccc(Cl)c(C(F)(F)F)c3)c2)c2nc3ccccc3c(C(N)=O)c2C1 (racemic)	> 64	> 64	> 64	> 64
CC1C/C(=C\c2ccco2)c2nc3ccccc3c(C(=O)O)c2C1 (racemic)	16 (≈ 50.1 µM)	32 (≈ 100 µM)	> 64	> 64
COc1ccc2nc3c(c(C(=O)O)c2c1)CC(C)C/C3=C\c1ccc(-c2ccc(Cl)c(C(F)(F)F)c2)cc1 (racemic)	4 (≈ 7.44 µM)	> 64	4 (≈ 7.44 µM)	4 (≈ 7.44 µM)
Cc1ccc(-c2ccc(/C=C3\CC(C)Cc4c3nc3ccccc3c4C(=O)O)o2)c(Cl)c1 (racemic)	16 (≈ 36 µM)	> 64	8 (≈ 18 µM)	4 (≈ 9.01 µM)
